# From patent US20130012506A1 (priority 2010, published 2013)
# Read-outs that look alike come from different tables or passages of the source.
# Experiments:
# [1] = tested on: M. tuberculosis H37Rv-GFP inside Raw264.7 macrophages
# [2] = tested on: M. tuberculosis H37Rv-GFP; test: microbe, parasite or virus in culture; conditions: Mycobacterium tuberculosis, read-out: minimal inhibitory concentration (MIC)
# [3] = tested on: M. tuberculosis H37Rv-GFP inside Raw264.7 macrophages; test: microbe, parasite or virus in culture; conditions: Mycobacterium tuberculosis, 120 h, read-out: minimal inhibitory concentration (MIC)
# [4] = tested on: M. tuberculosis H37Rv; test: Bacteria killing activity by CFU counting, aerobic incubation; format: cell-based, Mycobacterium tuberculosis
# Procedure: FIG. 8 illustrates the colony forming units (CFUs) recovered from macrophages at different time points after infection with M. tuberculosis H37Rv. Cells were infected and treated with the indicated amount of pyridopyrimidione compound 71 (4 to 20 μM);
# The bacteria killing activity of compound 71 was determined using the CFU counting method. Two-fold serial dilutions of compound 71 were incubated aerobically with H37Rv for 21 days at 37° C.
# [5] = tested on: BJ- Skin; test: Cytotoxicity assay (resazurin, 5 days); format: cell-based
# Procedure: (§1) In order to address compound toxicity, seven cell lines originating from different body tissues were cultivated in the presence of 3-fold dilutions of compounds starting from 100 μM. After 5 days of culture, cell viability was assessed by the resazurin test. Briefly, cells were incubated with 10 μg/mL of resazurin (Sigma-Aldrich St. Louis, Mo.) for 4 h at 37° C. under 5% CO2. Resofurin fluorescence (RFU) was measured as indicated above. Percentage of toxicity on cells was calculated as follows: Cytotoxicity (%)=(RFUDMSO−RFUBlank)−(RFUcompound−RFUblank)/(RFUDMSO−RFUBlank)×100. Percentage of cytotoxicity was plotted against compound concentration and the minimal toxic concentration (MTC50) was determined by non-linear regression analysis as the lowest compound concentration where fifty percent toxicity was observed on the corresponding cell line.
# (§2) To address the issue of toxicity, compound 133 was tested on a panel of seven cell lines derived from different body tissue. Cells were incubated with increasing amounts of compound and cell viability was assessed with resazurin after 5 days of co-incubation. Percentage of cytotoxicity was determined by taking as a reference the resofurin fluorescence measured by DMSO containing wells. The concentration where fifty percent of the cells died was defined as the Minimal Toxic Concentration (MTC50).
# [6] = tested on: HEK293- Kidney; test: Cytotoxicity assay (resazurin, 5 days); format: cell-based; conditions: HEK293, 5 days
# Procedure: as §1, §2
# [7] = tested on: HepG2-Hepatocytes; test: Cytotoxicity assay (resazurin, 5 days); format: cell-based; conditions: HepG2, 5 days
# Procedure: as §1, §2
# [8] = tested on: Jurkat -T-cell; test: Cytotoxicity assay (resazurin, 5 days); format: cell-based
# Procedure: as §1, §2
# [9] = tested on: MRC5- Lung; test: Cytotoxicity assay (resazurin, 5 days); format: cell-based; conditions: MRC5, 5 days
# Procedure: as §1, §2
# [10] = tested on: SK-N-SH -Brain; test: Cytotoxicity assay (resazurin, 5 days); format: cell-based
# Procedure: as §1, §2
# [11] = tested on: THP-1 - Monocytes; test: Cytotoxicity assay (resazurin, 5 days); format: cell-based; conditions: THP-1, 5 days
# Procedure: as §1, §2
# [12] = tested on: seven cell lines derived from different body tissue; test: Cytotoxicity assay on a panel of seven cell lines; format: cell-based; conditions: all tested cell lines, 5 days of co-incubation
# Procedure: as §1, §2
# [13] = tested on: M. tuberculosis clinical isolates; format: cell-based, Mycobacterium tuberculosis
# [14] = tested on: M. tuberculosis H37Rv; test: MIC on laboratory strain, in vitro bacterial growth assay; format: cell-based; conditions: Mycobacterium tuberculosis
# [15] = tested on: M. tuberculosis H37Ra; test: as above; format: cell-based; conditions: Mycobacterium tuberculosis
# [16] = tested on: BCG Pasteur-Tokyo; test: microbe, parasite or virus in culture; format: cell-based; conditions: Mycobacterium tuberculosis variant bovis BCG
# [17] = tested on: M. smegmatis mc^2 155; test: MIC on fast growing mycobacteria; format: cell-based, Mycobacterium smegmatis
# [18] = tested on: Acinetobacter baumannii, Escherichia coli, Enterobacter cloacae, E. aerogenes, Klebsiella oxytoca, Pseudomonas aeruginosa, Salmonella enteridis, Vibrio mimicus; test: Antimicrobial spectrum on clinical isolates, Gram-negative; format: cell-based, Gram-negative bacteria
# [19] = tested on: Staphylococcus aureus, S. epidermis, S. capitis, S. xylosus, Micrococcus luteus, Listeria innocua, Lactobacillus gallinarum, group G Streptococcus …; test: Antimicrobial spectrum on clinical isolates, Gram-positive; format: cell-based, Gram-positive bacteria
# [20] = tested on: C. striatum, C. jeikeium; test: Antimicrobial spectrum on clinical isolates, Corynebacterium; format: cell-based
# [21] = tested on: Candida albicans, C. glabrata, C. parapsilosis; test: Antimicrobial spectrum on clinical isolates, Fungi; format: cell-based
# [22] = tested on: M. tuberculosis H37Rv in mouse macrophages; test: CFU determination in infected mouse macrophages; format: cell-based, Mycobacterium tuberculosis; conditions: mouse cells, seven days after infection
# [23] = tested on: M. tuberculosis H37Rv in human macrophages; format: cell-based, Mycobacterium tuberculosis
# [24] = tested on: M. tuberculosis H37Rv-GFP; test: in vitro; conditions: Mycobacterium tuberculosis
# [25] = tested on: M. tuberculosis H37Rv-GFP inside Raw264.7 macrophages; test: in vitro; conditions: mouse
# [26] = tested on: Primary BMDM; test: Cytotoxicity assay (resazurin, 5 days)
# [27] = tested on: Primary human macrophages; test: Cytotoxicity assay (resazurin, 5 days)
# [28] = tested on: M. tuberculosis in primary macrophages; format: cell-based, Mycobacterium tuberculosis
structure (smiles),measurement,setting,value
CNC(=O)c1c(Nc2ccc(F)c(Cl)c2)nc2c(OC)cccn2c1=O,melting point,,218 °C (dec.)
COc1cccn2c(=O)c(CO)c(Nc3ccc(F)c(F)c3)nc12,melting point,,231 °C (dec.)
Cn1cnc2ccc(Nc3nc4c(F)cccn4c(=O)c3CO)cc21,melting point,,209 °C (dec.)
COc1cccn2c(=O)c(Br)c(Nc3ccc4ncccc4c3)nc12,melting point,,248 to 249 °C
COC(=O)c1ccc(Nc2nc3c(OC)cccn3c(=O)c2CO)nc1,melting point,,231 to 232 °C (dec.)
"NNC(=O)c1ccncc1 [INH, isoniazid]",Calculated MICs from the image based quantification of the infection ratio,[1],0.16 ± 0.05 µg/mL
same,cells that appear to be infected,[1],10%
same,MIC,[2],0.1 mg/L
same,MIC,[3],0.1 mg/L
"COc1cccn2c(=O)c(CO)c(Nc3ccc4ncccc4c3)nc12 [compound 71, 3-(Hydroxymethyl)-9-methoxy-2-(quinolin-6-ylamino)-4H-pyrido[1,2-a]pyrimidin-4-one]",growth of M. tuberculosis (CFU),"[4]; 0.04 to 20 μM, H37Rv, 21 days at 37° C.",strongly inhibited the growth of M. tuberculosis
same,bacteria killing activity (CFU),[4]; after 2 days of incubation,fast bacteria killing activity even at the lowest concentration
"Cc1cccn2c(=O)c(C=O)c(Nc3cccc(Cl)c3)nc12 [compound 133, 2-(3-Chlorophenylamino)-9-methyl-4-oxo-4H-pyrido[1,2-a]pyrimidine-3-carbaldehyde]",Range of MTC50,[5],>100 µM
same,Range of MTC50,[6],>100 µM
same,Range of MTC50,[7],>100 µM
same,Range of MTC50,[8],>100 µM
same,Range of MTC50,[9],>100 µM
same,Range of MTC50,[10],>100 µM
same,Range of MTC50,[11],>100 µM
same,"cytotoxicity (Minimal Toxic Concentration, MTC50)",[12],> 100 µM
same,Range of MICs for multiple strains (μM),"[13]; Drug Sensitive, Tissue, 2 isolates",2.5-5^ μM
same,Range of MICs for multiple strains,"[13]; INH^R RIF^R Strep^R, Sputum, 3 isolates",0.3 to 1.2 µM
same,Range of MICs for multiple strains,"[13]; INH^R RIF^R Strep^R, Tissue, 1 isolate",1.2 µM
same,Range of MICs for multiple strains,"[13]; MDR, Sputum, 3 isolates",0.3 to 1.2 µM
same,Range of MICs for multiple strains,"[13]; MDR, Tissue, 1 isolate",1.2 µM
same,Range of MICs for multiple strains,"[13]; RIF^R, Sputum, 1 isolate",2.5 µM
same,Range of MICs for multiple strains,"[13]; RIF^R, Tissue, 1 isolate",1.2 µM
same,Range of MICs for multiple strains,"[13]; XDR, Sputum, 4 isolates",0.6 to 2.5 µM
same,Range of MICs for multiple strains (μM),"[13]; XDR, Tissue, 5 isolates",0.3-5^ μM
same,MIC,[14],2 µM
same,MIC,[15],2 µM
same,MIC,[16],2 µM
same,MIC,[17],no effect
same,MIC,"[17]; Mycolicibacterium smegmatis, MC^2155, read-out: MIC",> 100 µM
same,Antibacterial activity & Specificity,[18],NE (NE: No effect up to 100 μg/mL equivalent to 320 μM)
same,Antibacterial activity & Specificity,[19],NE (NE: No effect up to 100 μg/mL equivalent to 320 μM)
same,Antibacterial activity & Specificity,[20],NE (NE: No effect up to 100 μg/mL equivalent to 320 μM)
same,Antibacterial activity & Specificity,[21],NE (NE: No effect up to 100 μg/mL equivalent to 320 μM)
same,decrease in the number of CFUs,[22],ten-fold decrease in the number of CFUs
same,decrease in the number of CFUs,[23],ten-fold decrease in the number of CFUs
same,selectivity ratio,[24],> 50
same,selectivity ratio,[25],> 50
same,Range of MTC50,[26],>100 µM
same,Range of MTC50,[27],>100 µM
"Cc1cccn2c(=O)c(CO)c(Nc3cccc(Cl)c3)nc12 [compound 232, 2-(3-Chlorophenylamino)-3-(hydroxymethyl)-9-methyl-4H-pyrido[1,2-a]pyrimidin-4-one]",decrease in the number of CFUs,[22],ten-fold decrease in the number of CFUs
same,decrease in the number of CFUs,[23],ten-fold decrease in the number of CFUs
same,bacterial load and host cell abundance,[28],harbored fewer bacteria compared to DMSO control and were more abundant
CO[C@H]1/C=C/O[C@@]2(C)Oc3c(C)c(O)c4c(O)c(c(/C=N/N5CCN(C)CC5)c(O)c4c3C2=O)NC(=O)/C(C)=C\C=C\[C@H](C)[C@H](O)[C@@H](C)[C@@H](O)[C@@H](C)[C@H](OC(C)=O)[C@@H]1C [rifampin],Calculated MICs from the image based quantification of the infection ratio,[1],2.4 ± 1.3 µg/mL
same,cells that appear to be infected,[1],10%
